# Assay results from patent EP0554004A2, “Cephem compounds and antibacterial agents” (KATAYAMA SEIYAKUSYO CO. Ltd., priority 1992, dated 1993).
# Like-named read-outs stand apart in the source and are kept apart here.
# Legend:
# A. calcoaceticos T59 = experiment: MIC against standard strains (Test Example 3); format: cell-based
# Procedure: (§1) By using each test strain cultured overnight at 37°C in a Muller-Hinton broth, there was prepared a bacterial solution with a bacterial cell population of 1 x 10^6 CFU/mi of the same bouillon. The bacterial solution was inoculated into the Muller-Hinton agar media each containing respectively one test agent and, after overnight incubation at 37°C, the minimum concentration that inhibited growth of the bacteria was determined and shown as MIC also in Table 1.
# (§2) The minimum growth inhibitory concentration was determined for each of the 21 standard strains shown in Table 3, according to the same method as used in Test Example 1.
# (§3) In the test, FMOX (flomoxef), CTM (cefotiam) and CEZ (cefazolin) were used as control agents.
# A. faecalis ATCC3750 = experiment: MIC against standard strains (Test Example 3); format: cell-based; conditions: Alcaligenes faecalis
# Procedure: as §1, §2, §3
# B. subtilis ATCC6633 = experiment: MIC against standard strains (Test Example 3); format: cell-based; conditions: Bacillus subtilis
# Procedure: as §1, §2, §3
# C. freundii ATCC8090 = experiment: MIC against standard strains (Test Example 3); format: cell-based; conditions: Citrobacter freundii
# Procedure: as §1, §2, §3
# E. cloacae ATCC13407 = experiment: MIC against standard strains (Test Example 3); format: cell-based; conditions: Enterobacter cloacae
# Procedure: as §1, §2, §3
# E. coli CSH2 (RE45) = experiment: MIC against standard strains (Test Example 3); format: cell-based; conditions: Escherichia coli
# Procedure: as §1, §2, §3
# E. coli CSH2 (RK1) = experiment: MIC against standard strains (Test Example 3); format: cell-based; conditions: Escherichia coli
# Procedure: as §1, §2, §3
# E. coli NIHJ JC-2 = experiment: MIC against standard strains (Test Example 3); format: cell-based; conditions: Escherichia coli, NIHJJC2
# Procedure: as §1, §2, §3
# K. pneumoniae IFO3317 = experiment: MIC against standard strains (Test Example 3); format: cell-based; conditions: Klebsiella pneumoniae
# Procedure: as §1, §2, §3
# K. pneumoniae No. 42 = experiment: MIC against standard strains (Test Example 3); format: cell-based; conditions: Klebsiella pneumoniae
# Procedure: as §1, §2, §3
# M. Morganii IFO3848 = experiment: MIC against standard strains (Test Example 3); format: cell-based; conditions: Morganella morganii
# Procedure: as §1, §2, §3
# M. luteus ATCC 9341 = experiment: MIC against standard strains (Test Example 3); format: cell-based; conditions: Micrococcus luteus, ATCC9341
# Procedure: as §1, §2, §3
# P. aeruginosa NCTC10490 = experiment: MIC against standard strains (Test Example 3); format: cell-based; conditions: Pseudomonas aeruginosa
# Procedure: as §1, §2, §3
# P. mirabilis IFO3849 = experiment: MIC against standard strains (Test Example 3); format: cell-based; conditions: Proteus mirabilis
# Procedure: as §1, §2, §3
# P. vulugaris OX-19 = experiment: MIC against standard strains (Test Example 3); format: cell-based
# Procedure: as §1, §2, §3
# S. aureus 167 = experiment: MIC against standard strains (Test Example 3); format: cell-based; conditions: Staphylococcus aureus
# Procedure: as §1, §2, §3
# S. aureus 195 = experiment: MIC against standard strains (Test Example 3); format: cell-based; conditions: Staphylococcus aureus
# Procedure: as §1, §2, §3
# S. aureus 209p JC-1 = experiment: MIC against standard strains (Test Example 3); format: cell-based; conditions: Staphylococcus aureus
# Procedure: as §1, §2, §3
# S. aureus Smith = experiment: MIC against standard strains (Test Example 3); format: cell-based; conditions: Staphylococcus aureus
# Procedure: as §1, §2, §3
# S. epidemidis IAM1296 = experiment: MIC against standard strains (Test Example 3); format: cell-based
# Procedure: as §1, §2, §3
# S. marcescens IAM1184 = experiment: MIC against standard strains (Test Example 3); format: cell-based; conditions: Serratia marcescens
# Procedure: as §1, §2, §3
# clinically isolated MRSA = experiment: Antibacterial potency against clinically isolated MRSA (Test Example 4); format: cell-based, methicillin-resistant Staphylococcus aureus; conditions: Staphylococcus aureus
# Procedure: 52 strains of clinically isolated MRSA were used, and MIC was determined for each of the strains according to the standard method of the Japan Chemotherapical Society as in Test Example 1. The minimum growth inhibitory concentration which inhibited growth of 50% of the strains tested was expressed as MIC50 (µg/ml), and the minimum growth inhibitory concentration which inhibited growth of 90% of the strains was expressed as MIC90 (µg/ml).
# MIC 50 and MIC 90 were determined for each of the 52 strains of clinically isolated MRSA according to the same method as used in Test Example 2.
# VCM (vancomycin) was used as control agent.
# [1] = A. calcoaceticos T59 (Test Example 3), read-out: MIC
# [2] = A. faecalis ATCC3750 (Test Example 3), read-out: MIC
# [3] = B. subtilis ATCC6633 (Test Example 3), read-out: MIC
# [4] = C. freundii ATCC8090 (Test Example 3), read-out: MIC
# [5] = E. cloacae ATCC13407 (Test Example 3), read-out: MIC
# [6] = E. coli NIHJ JC-2 (Test Example 3), read-out: MIC
# [7] = K. pneumoniae IFO3317 (Test Example 3), read-out: MIC
# [8] = K. pneumoniae No. 42 (Test Example 3), read-out: MIC
# [9] = M. Morganii IFO3848 (Test Example 3), read-out: MIC
# [10] = M. luteus ATCC 9341 (Test Example 3), read-out: MIC
# [11] = P. aeruginosa NCTC10490 (Test Example 3), read-out: MIC
# [12] = P. mirabilis IFO3849 (Test Example 3), read-out: MIC
# [13] = P. vulugaris OX-19 (Test Example 3), read-out: MIC
# [14] = S. aureus 167 (MRSA) (Test Example 3), read-out: MIC
# [15] = S. aureus 195 (MRSA) (Test Example 3), read-out: MIC
# [16] = S. aureus 209p JC-1 (Test Example 3), read-out: MIC
# [17] = S. aureus Smith (Test Example 3), read-out: MIC
# [18] = S. epidemidis IAM1296 (Test Example 3), read-out: MIC
# [19] = S. marcescens IAM1184 (Test Example 3), read-out: MIC
compound,measurement,setting,value
"CNc1nc(-c2ccc[n+](CC3=C(C(=O)[O-])N4C(=O)[C@@H](NC(=O)/C(=N\O)c5csc(N)n5)[C@H]4SC3)c2)cs1 [Compound (10), 7β-[2-(2-aminothiazol-4-yl)-2-syn-hydroxyiminoacetamido)-3-[[3-(2-methylaminothiazol-4-yl)-1-pyridinio]methyl]-3-cephem-4-carboxylic acid chloride]",MIC,A. calcoaceticos T59; [1],50 µg/mL
same,MIC,A. faecalis ATCC3750; [2],6.25 µg/mL
same,MIC,B. subtilis ATCC6633; [3],0.39 µg/mL
same,MIC,C. freundii ATCC8090; [4],1.56 µg/mL
same,MIC,E. cloacae ATCC13407; [5],12.5 µg/mL
same,MIC,E. coli CSH2 (RE45),1.56 µg/mL
same,MIC,E. coli CSH2 (RK1),3.13 µg/mL
same,MIC,E. coli NIHJ JC-2; [6],1.56 µg/mL
same,MIC,K. pneumoniae IFO3317; [7],0.39 µg/mL
same,MIC,K. pneumoniae No. 42; [8],6.25 µg/mL
same,MIC,M. Morganii IFO3848; [9],0.2 µg/mL
same,MIC,M. luteus ATCC 9341; [10],0.1 µg/mL
same,MIC,P. aeruginosa NCTC10490; [11],25 µg/mL
same,MIC,P. mirabilis IFO3849; [12],3.13 µg/mL
same,MIC,P. vulugaris OX-19; [13],0.39 µg/mL
same,MIC,S. aureus 167; [14],12.5 µg/mL
same,MIC,S. aureus 195; [15],3.13 µg/mL
same,MIC,S. aureus 209p JC-1; [16],0.39 µg/mL
same,MIC,S. aureus Smith; [17],0.78 µg/mL
same,MIC,S. epidemidis IAM1296; [18],0.2 µg/mL
same,MIC,S. marcescens IAM1184; [19],3.13 µg/mL
same,MIC50,"clinically isolated MRSA; 52 strains of clinically isolated MRSA, concentration inhibiting growth of 50% of the strains (Test Example 4), read-out: MIC50",4.04 µg/mL
same,MIC90,"clinically isolated MRSA; 52 strains of clinically isolated MRSA, concentration inhibiting growth of 90% of the strains (Test Example 4), read-out: MIC90",8.37 µg/mL
"Cc1nnc(SCC2=C(C(=O)O)N3C(=O)[C@@H](NC(=O)Cn4cnnn4)[C@H]3SC2)s1 [CEZ, cefazolin, reference compound]",MIC,A. calcoaceticos T59; [1],> 100 µg/mL
same,MIC,A. faecalis ATCC3750; [2],12.5 µg/mL
same,MIC,B. subtilis ATCC6633; [3],0.2 µg/mL
same,MIC,C. freundii ATCC8090; [4],3.13 µg/mL
same,MIC,E. cloacae ATCC13407; [5],> 100 µg/mL
same,MIC,E. coli CSH2 (RE45),1.56 µg/mL
same,MIC,E. coli CSH2 (RK1),3.13 µg/mL
same,MIC,E. coli NIHJ JC-2; [6],1.56 µg/mL
same,MIC,K. pneumoniae IFO3317; [7],0.78 µg/mL
same,MIC,K. pneumoniae No. 42; [8],3.13 µg/mL
same,MIC,M. Morganii IFO3848; [9],25 µg/mL
same,MIC,M. luteus ATCC 9341; [10],0.78 µg/mL
same,MIC,P. aeruginosa NCTC10490; [11],> 100 µg/mL
same,MIC,P. mirabilis IFO3849; [12],6.25 µg/mL
same,MIC,P. vulugaris OX-19; [13],12.5 µg/mL
same,MIC,S. aureus 167; [14],100 µg/mL
same,MIC,S. aureus 195; [15],50 µg/mL
same,MIC,S. aureus 209p JC-1; [16],0.2 µg/mL
same,MIC,S. aureus Smith; [17],0.2 µg/mL
same,MIC,S. epidemidis IAM1296; [18],0.1 µg/mL
same,MIC,S. marcescens IAM1184; [19],> 100 µg/mL
"NC(=O)Oc1ccc[n+](CC2=C(C(=O)[O-])N3C(=O)[C@@H](NC(=O)/C(=N\O)c4csc(N)n4)[C@H]3SC2)c1 [Compound (8), 7β-[2-(2-aminothiazol-4-yl)-2-syn-hydroxyiminoacetamido]-3-[(3-carbamoyloxy-1-pyridinio)methyl]-3-cephem-4-carboxylic acid chloride]",MIC,A. calcoaceticos T59,25 µg/mL
same,MIC,A. faecalis ATCC3750; ATCC3750,0.78 µg/mL
same,MIC,B. subtilis ATCC6633; ATCC6633,0.39 µg/mL
same,MIC,C. freundii ATCC8090; ATCC8090,0.39 µg/mL
same,MIC,E. cloacae ATCC13407; ATCC13407,1.56 µg/mL
same,MIC,E. coli CSH2 (RE45),0.2 µg/mL
same,MIC,E. coli CSH2 (RK1),0.39 µg/mL
same,MIC,E. coli NIHJ JC-2,0.1 µg/mL
same,MIC,K. pneumoniae IFO3317; IFO3317,0.1 µg/mL
same,MIC,K. pneumoniae No. 42; NO.42,0.39 µg/mL
same,MIC,M. Morganii IFO3848; IFO3848,0.05 µg/mL
same,MIC,M. luteus ATCC 9341,0.1 µg/mL
same,MIC,P. aeruginosa NCTC10490; NCTC10490,100 µg/mL
same,MIC,P. mirabilis IFO3849; IFO3849,0.1 µg/mL
same,MIC,P. vulugaris OX-19,0.2 µg/mL
same,MIC,S. aureus 167; MRSA,50 µg/mL
same,MIC,S. aureus 195; MRSA,25 µg/mL
same,MIC,S. aureus 209p JC-1; 209P,0.78 µg/mL
same,MIC,S. aureus Smith,1.56 µg/mL
same,MIC,S. epidemidis IAM1296,0.39 µg/mL
same,MIC,S. marcescens IAM1184; IAM1184,0.39 µg/mL
same,MIC50,clinically isolated MRSA; MRSA,8.34 µg/mL
same,MIC90,clinically isolated MRSA; MRSA,37.9 µg/mL
